# Reference: publication PMC9694544, “Conteltinib (CT-707) in patients with advanced ALK-positive non-small cell lung cancer: a multicenter, open-label, first-in-human phase 1 study” (BMC Medicine, 2022)
# Values joined by “and” are separate entries in the source; they are usually repeats but may differ in a detail not shown here. Identical values can stand only once.
# System: ALK-positive NSCLC
# Test: Phase 1 efficacy assessment (RECIST 1.1, investigator-assessed);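 further: tumours imaged by CT or MRI at baseline, after cycle 1, then every 8 weeks to cycle 29 and every 12 weeks until progression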
# [1] = ALK TKI-naïve, 300 mg BID (n=6)
# [2] = ALK TKI-naïve, 600 mg QD (n=12)
# [3] = All patients, 300 mg BID (n=11)
# [4] = Received crizotinib previously, 50 mg QD (n=1)
# [5] = Received crizotinib previously, 200 mg QD (n=1)
# [6] = Received crizotinib previously, 300 mg BID (n=5)
# [7] = Received crizotinib previously, 300 mg QD (n=1)
# [8] = Received crizotinib previously, 600 mg QD (n=6)
# [9] = Received crizotinib previously, 800 mg QD (n=1)
# [10] = waterfall plot, evaluable patients (n=60)
smiles,measurement,setting,value
COc1cc(N2CCC(N3CCN(C)CC3)CC2)ccc1Nc1nc2c(c(Nc3ccccc3S(=O)(=O)NC(C)C)n1)CCN2 [Conteltinib],CR rate,39 ALK TKI-naïve patients,2.6%
same,PR rate,39 ALK TKI-naïve patients,61.5%
same,number of patients with objective response,39 ALK TKI-naïve patients,25 patients
same,patients with tumor regression,50/60 patients,83.3%
same,DCR (95% CI),"ALK TKI-naïve, 50 mg QD (n=1)",100.0% (2.5–100.0)
same,ORR (95% CI),"ALK TKI-naïve, 50 mg QD (n=1)",100.0% (2.5–100.0)
same,"DoR, Median (95% CI)","ALK TKI-naïve, 100 mg QD (n=6)",11.1 (5.61–15.0) months
same,"PFS, Median (95% CI)","ALK TKI-naïve, 100 mg QD (n=6)",11.3 (2.75–15.9) months
same,"DoR, Median (95% CI)","ALK TKI-naïve, 200 mg QD (n=2)",5.51 (NE–NE) months
same,ORR (95% CI),"ALK TKI-naïve, 200 mg QD (n=2)",50.0% (1.3–98.7)
same,"PFS, Median (95% CI)","ALK TKI-naïve, 200 mg QD (n=2)",5.89 (3.25–8.54) months
same,"DoR, Median (95% CI)",[1],10.6 (1.80–10.6) months
same,"PFS, Median (95% CI)",[1],17.8 (3.05–19.6) months
same,DCR (95% CI),"ALK TKI-naïve, 300 mg QD (n=2)",100.0% (15.8–100.0)
same,"DoR, Median (95% CI)","ALK TKI-naïve, 300 mg QD (n=2)",17.4 (9.06–25.8) months
same,ORR (95% CI),"ALK TKI-naïve, 300 mg QD (n=2)",100.0% (15.8–100.0)
same,"PFS, Median (95% CI)","ALK TKI-naïve, 300 mg QD (n=2)",19.5 (10.2–28.8) months
same,"DoR, Median (95% CI)","ALK TKI-naïve, 450 mg QD (n=8)",NE (3.74–NE)
same,"PFS, Median (95% CI)","ALK TKI-naïve, 450 mg QD (n=8)",NE (4.63–NE)
same,"DoR, Median (95% CI)",[2],16.5 (1.80–32.8) months
same,"PFS, Median (95% CI)",[2],19.3 (1.05–32.4) months
same,DCR (95% CI),"ALK TKI-naïve, 800 mg QD (n=2)",100.0% (15.8–100.0)
same,"DoR, Median (95% CI)","ALK TKI-naïve, 800 mg QD (n=2)",28.0 (NE–NE) months
same,ORR (95% CI),"ALK TKI-naïve, 800 mg QD (n=2)",50.0% (1.3–98.7)
same,"PFS, Median (95% CI)","ALK TKI-naïve, 800 mg QD (n=2)",19.8 (10.3–29.2) months
same,"DoR, Median (95% CI)","ALK TKI-naïve, Total (n=39)",15.0 (9.06–25.8) months
same,"PFS, Median (95% CI)","ALK TKI-naïve, Total (n=39)",15.9 (9.26–23.3) months
same,DCR (95% CI),"All patients, 50 mg QD (n=2)",50.0% (1.3–98.7)
same,ORR (95% CI),"All patients, 50 mg QD (n=2)",50.0% (1.3–98.7)
same,"PFS, Median (95% CI)","All patients, 50 mg QD (n=2)",NE (1.21–NE)
same,"DoR, Median (95% CI)","All patients, 100 mg QD (n=7)",11.1 (5.61–15.0) months
same,"PFS, Median (95% CI)","All patients, 100 mg QD (n=7)",8.57 (0.95–15.9) months
same,DCR (95% CI),"All patients, 200 mg QD (n=3)",33.3% (0.8–90.6)
same,"DoR, Median (95% CI)","All patients, 200 mg QD (n=3)",5.51 (NE–NE) months
same,ORR (95% CI),"All patients, 200 mg QD (n=3)",33.3% (0.8–90.6)
same,"PFS, Median (95% CI)","All patients, 200 mg QD (n=3)",3.25 (1.34–8.54) months
same,"DoR, Median (95% CI)",[3],5.58 (1.80–10.6) months
same,"PFS, Median (95% CI)",[3],7.68 (3.05–17.8) months
same,DCR (95% CI),"All patients, 300 mg QD (n=3)",100.0% (29.2–100.0)
same,"DoR, Median (95% CI)","All patients, 300 mg QD (n=3)",17.4 (9.06–25.8) months
same,ORR (95% CI),"All patients, 300 mg QD (n=3)",66.7% (9.4–99.2)
same,"PFS, Median (95% CI)","All patients, 300 mg QD (n=3)",10.2 (4.92–28.8) months
same,"DoR, Median (95% CI)","All patients, 450 mg QD (n=13)",NE (3.74–NE)
same,"PFS, Median (95% CI)","All patients, 450 mg QD (n=13)",26.9 (4.63–NE) months
same,"DoR, Median (95% CI)","All patients, 600 mg QD (n=18)",15.6 (1.80–22.2) months
same,"PFS, Median (95% CI)","All patients, 600 mg QD (n=18)",13.2 (4.69–23.0) months
same,DCR (95% CI),"All patients, 800 mg QD (n=3)",100.0% (29.2–100.0)
same,"DoR, Median (95% CI)","All patients, 800 mg QD (n=3)",17.3 (6.60–28.0) months
same,ORR (95% CI),"All patients, 800 mg QD (n=3)",66.7% (9.4–99.2)
same,"PFS, Median (95% CI)","All patients, 800 mg QD (n=3)",10.3 (7.72–29.2) months
same,"DoR, Median (95% CI)","All patients, Total (n=60)",13.3 (6.60–22.2) months
same,"PFS, Median (95% CI)","All patients, Total (n=60)",9.26 (6.73–15.7) months
same,patients achieving CR,"FAS, 60 patients",1.7%
same,patients achieving PR,"FAS, 60 patients",51.7%
same,patients attaining SD,"FAS, 60 patients",26.7%
same,patients experiencing PD,"FAS, 60 patients",16.7%
same,DCR (95% CI),[4],0.0% (0.0–97.5)
same,ORR (95% CI),[4],0.0% (0.0–97.5)
same,"PFS, Median (95% CI)",[4],1.21 (NE–NE) months
same,"PFS, Median (95% CI)","Received crizotinib previously, 100 mg QD (n=1)",0.95 months and 0.95 (NE–NE) months
same,DCR (95% CI),[5],0.0% (0.0–97.5)
same,ORR (95% CI),[5],0.0% (0.0–97.5)
same,"PFS, Median (95% CI)",[5],1.34 (NE–NE) months
same,"DoR, Median (95% CI)",[6],5.58 (4.63–7.39) months
same,"PFS, Median (95% CI)",[6],7.09 (4.73–8.54) months
same,DCR (95% CI),[7],100.0% (54.1–100.0)
same,ORR (95% CI),[7],0.0% (0.0–97.5)
same,"PFS, Median (95% CI)",[7],4.92 (NE–NE) months
same,"PFS, Median (95% CI)","Received crizotinib previously, 450 mg QD (n=5)",8.34 (3.02–26.9) months
same,"DoR, Median (95% CI)",[8],13.3 (3.77–16.5) months
same,"PFS, Median (95% CI)",[8],9.37 (4.69–17.7) months
same,DCR (95% CI),[9],100.0% (2.5–100.0)
same,"DoR, Median (95% CI)",[9],6.60 (NE–NE) months
same,ORR (95% CI),[9],100.0% (2.5–100.0)
same,"PFS, Median (95% CI)",[9],7.72 (NE–NE) months
same,tumor size changes relative to baseline,across all patients (n=60),−100 to 74%
same,number of patients with CR,[10],One
same,number of patients with PD,[10],10 patients
same,number of patients with PR,[10],31 patients
